Bounds are passed on as bounds.

The experiment has as its system M. tuberculosis H37Rv growth inhibition. Kind of experiment: M. tuberculosis H37Rv growth inhibitors, H37Rv strain (AID 1626). The conditions noted are these: for IC90: measured here: IC90 against H37Rv; for CC50: measured here: Vero cell cytotoxicity.

On to `O=[N+]([O-])c1cc(C(F)(F)F)ccc1Oc1cccnc1[N+](=O)[O-]`, for which the IC50 was 1.54 µM and the IC90 stood at 1.73 µM.
The like results for `O=C(CCN1C(=O)C2CCCCC2C1=O)Nc1nc(-c2ccc(F)c(F)c2)cs1` (stereo unspecified) were, in that order, 47.5 µM and more than 100 µM.
The like results for `O=C(CC(Nc1ccc(F)cc1)C(=O)OCC(=O)c1cccs1)c1ccccc1` (stereo unspecified) were, in that order, 67.1 µM and more than 100 µM.
The like results for `Cc1ccc(-c2nnc(SCC#CCOC(=O)c3ccco3)o2)cc1` were, in that order, less than 0.391 µM and 3.43 µM.
For the compound `Cc1ccc(NC(=O)c2ccc([N+](=O)[O-])o2)cc1C`, the IC50 was less than 0.195 µM, the IC90 stood at 8.63 µM and the CC50 was more than 40 µM.
In the case of `COc1ccc(NCC(=O)Nc2ccc(C#N)cc2)cc1Cl`, the IC50 was 8.28 µM, the IC90 is more than 100 µM and the CC50 was more than 40 µM.
Regarding `O=C(Nc1ccc(-n2cccc2)cc1)C1CC1`, the IC50 is less than 0.195 µM and the IC90 was more than 100 µM.
In turn, `CCOc1ccc(NC2C=CS(=O)(=O)C2)cc1` (stereo unspecified) registered an IC90 of more than 100 µM.
On to `Cc1cc(C2N=C(N)Nc3nc4ccccc4n32)c(C)n1-c1ccccc1Cl` (stereo unspecified), for which the IC50 was 7.61 µM and the IC90 was determined as 12.2 µM.
As to `COc1ccc(/C=c2\s/c(=C\C(=O)C(C)(C)C)[nH]c2=O)cc1O`, the IC50 was 5.62 µM, the IC90 was 7.63 µM and the CC50 came out at 25.3 µM.
For `COc1ccc2nc(C)cc(SCC(=O)OC(C)C)c2c1`, the IC50 was 9.36 µM and the IC90 is 13.8 µM.
With `CN1CCN(c2nc(-c3ccccc3)nc3c2oc2ccccc23)CC1`, the IC50 was 5.55 µM, the IC90 was determined as 10.5 µM and the CC50 came out at 30 µM.
Consider `Cc1ccc(-c2csc(NC(=O)C[n+]3cc(-c4ccc(C)cc4)n4c3CCC4)n2)cc1`, for which the IC50 was 11.3 µM and the IC90 amounted to 12.6 µM.
On to `CCCOC(=O)c1ccc(NC(=O)/C=C/c2cccs2)cc1`, for which the IC50 was 4.12 µM and the IC90 came out at 21.8 µM.
`Cc1ccc(C)c(/C=C/C(=O)c2ccccc(=O)c2O)c1` came in with a CC50 of 4.93 µM.
In the case of `COc1ccc(-c2c(C#N)c(SCC(=O)c3cc4ccccc4oc3=O)nc(C)c2C(=O)Nc2ccccc2)cc1`, the IC50 is 12.2 µM, the IC90 came out at 14.2 µM and the CC50 is 3.41 µM.
Consider `Cc1ccc2c(c1)Cc1nc3ccccc3nc1-2`, for which the IC50 is 83.5 µM, the IC90 was more than 100 µM and the CC50 is more than 40 µM.
As to `Nc1[nH]ncc1-c1ccc(Cl)cc1`, the IC50 is 21.6 µM and the IC90 was more than 100 µM.
With `Cc1ccc(Nc2cc(C)nn2-c2nc(C)cc(=O)[nH]2)cc1`, the IC50 is less than 0.391 µM, the IC90 came to 5.56 µM and the CC50 turned out to be 1.95 µM.
For the compound `Cc1ccc(Oc2cc(NC(=O)CCCn3nc(C)c([N+](=O)[O-])c3C)cc([N+](=O)[O-])c2)cc1`, the IC50 is 2.33 µM, the IC90 is 3.34 µM and the 50% cytotoxic concentration (CC50) was more than 40 µM.
The like results for `Cn1c(O)c(C(=Nc2ccccc2)SCc2ccc(Cl)cc2)c(=O)n(C)c1=O` were, in that order, 5.61 µM, 6.41 µM and 21.2 µM.
The like results for `O=C(c1nnsc1S(=O)c1ccc(Cl)cc1)N1CCOCC1` (stereo unspecified) were, in that order, 8.91 µM, 10.8 µM and 14.4 µM.
Regarding `Cc1cc(-c2c(C)[nH]n(-c3ccccc3)c2=O)n[nH]1`, the half-inhibitory concentration (IC50) is 10.5 µM, the IC90 was more than 100 µM and the CC50 stood at 36.2 µM.
In the case of `COc1cccc(/C=C/C(=O)c2cccc([N+](=O)[O-])c2)c1`, the IC50 is 6.89 µM, the IC90 was more than 100 µM and the cytotoxic concentration (CC50) stood at 35.9 µM.
In the case of `C/C(=C\C(=O)c1ccncc1)Nc1ccccc1O`, the IC50 is less than 0.195 µM, the IC90 came to 28.2 µM and the CC50 was more than 40 µM.
The like results for `CC(=O)n1cc(N(C(=O)CCl)c2ccc(C)cc2)c2ccccc21` were, in that order, 4.64 µM, 17.1 µM and 0.471 µM.
Compound `CCCCOC(=O)c1ccc(NC(=O)C(=O)NCc2ccccn2)cc1` returned an IC90 of more than 100 µM.
Still for that read-out and setting: the result for `CCOC(=O)c1cn[nH]c1N` reads more than 100 µM.
`Cc1nc2ccccc2n1/N=C/c1ccc([N+](=O)[O-])s1`: the IC50 is less than 0.195 µM, the IC90 is less than 0.195 µM and the CC50 came to 5.49 µM.
With `N=C1S/C(=C\c2ccco2)C(=O)N1c1nccs1`, the IC50 is less than 0.195 µM, the IC90 is less than 0.195 µM and the cytotoxic concentration (CC50) amounted to 22.5 µM.
As to `Clc1ccc(-c2nnc3sc(Cc4cccs4)nn23)cc1`, the IC50 was 19.6 µM and the IC90 was more than 100 µM.
In the case of `O=C1C=C(c2cccs2)C[C@H](c2ccccc2)[C@H]1n1nnc([N+](=O)[O-])n1`, the IC50 is 3.8 µM, the IC90 came out at 7.5 µM and the CC50 is less than 0.078 µM.
As for `Cc1nc(C)c(/C(O)=C/c2nc3ccccc3oc2=O)s1`, the 50% inhibitory concentration (IC50) is less than 0.195 µM and the IC90 was more than 100 µM.
The like results for `COc1ccc(N2C(=O)NC(=O)/C(=C/c3cccc(OC(=O)c4cccs4)c3)C2=O)cc1Cl` were, in that order, 5.35 µM and 17.5 µM.
On to `Cn1nnnc1SCC(=O)Nc1nc(-c2ccccc2)c(-c2ccccc2)o1`, for which the IC50 is 35.6 µM, the IC90 is more than 100 µM and the CC50 is more than 40 µM.
For `O=C(Nc1ccc(Oc2ccccc2)cc1)C1CCCO1` (stereo unspecified), the IC50 is 34.2 µM and the IC90 was more than 100 µM.
On to `Cc1nn(-c2ccccc2)c(Cl)c1CN(C(=O)CCl)c1ccc(Cl)cc1`, for which the IC50 was 13.5 µM, the IC90 is 31.3 µM and the CC50 stood at 1.82 µM.
The like results for `O=C(Nc1ccc(CSc2ccccc2)cc1)c1ccc(CN2CCOCC2)cc1` were, in that order, 32.2 µM, more than 100 µM and more than 40 µM.
The like results for `COc1cccc2c1nc(C)c1cc(C)oc12` were, in that order, 5.65 µM, more than 100 µM and more than 40 µM.
Regarding `Cc1cc(=O)oc2cc(Oc3ncccc3[N+](=O)[O-])ccc12`, the IC50 was 9.46 µM and the IC90 was more than 100 µM.
Turning to `COc1ccc(-c2nnc(SCC(=O)OC3CCCCC3)o2)cc1OC`, the IC50 was less than 0.195 µM, the 90% effect concentration (IC90) was found to be 1.04 µM and the CC50 was more than 40 µM.
On to `COc1ccccc1N1CCN(Cc2nc(N)nc(Nc3ccc(C)c(Cl)c3)n2)CC1`, for which the IC50 was 8.35 µM, the IC90 amounted to 18.7 µM and the CC50 is more than 40 µM.
The like results for `Clc1ccc2c(c1)C1=C(C(c3ccncc3)O2)C(c2ccc(Br)cc2)n2ncnc2N1` (stereo unspecified) were, in that order, 2.91 µM, 3.29 µM and more than 40 µM.
The like results for `CCn1c(/C=C/c2ccc([N+](=O)[O-])o2)nc2ccccc2c1=O` were, in that order, less than 0.195 µM, 0.383 µM and 15.6 µM.
Take `CC1CC(C)CN(C(=O)COC(=O)c2cc3ccccc3cc2O)C1` (stereo unspecified): the half-maximal inhibitory concentration (IC50) is 0.592 µM and the IC90 is 4.29 µM.
As for `Cc1ccc(-c2nc(NCc3ccco3)c3ccccc3n2)cc1`, the IC50 is 9.38 µM, the IC90 amounted to 16.2 µM and the cytotoxic concentration (CC50) is more than 40 µM.
On to `CCc1ccc(Nc2nnc(SCC(=O)Nc3cccnc3Cl)s2)cc1`, for which the IC50 was 5.02 µM and the concentration for an effect of 90% (IC90) stood at 13.6 µM.

As usually defined, the IC50 is the point on the concentration scale where inhibition reaches its midpoint. Broadly, the IC90 is the concentration at which the effect reaches the 90% level. Low readings indicate greater potency, high ones weaker potency. As usually defined, the CC50 is the concentration giving 50% cytotoxicity.

The record behind these values is PubChem BioAssay AID1626 (SRMLSC, 2009).
